Where “and” joins values, the source holds several entries; their conditions need not be identical. Equal entries are not always repeated. Where two headings read alike, the source gives them in different places. Positions of bridges follow the written chain, without caps; N, C: chain ends. Non-standard residues stand in square brackets, D forms with d. Residues, ends and D or L forms follow the SMILES beside them. Phe(3,4,5-F3) = N[C@@H](Cc1cc(F)c(F)c(F)c1)C(=O)O; pGlu = O=C1CC[C@@H](C(=O)O)N1; Nle = CCCC[C@H](N)C(=O)O; Abu = CC[C@H](N)C(=O)O; Aib = CC(C)(N)C(=O)O

Experiment [1] deals with T1, human apelin receptor (Homo sapiens, UniProt P35414).
T1 sequence (P35414 1-380): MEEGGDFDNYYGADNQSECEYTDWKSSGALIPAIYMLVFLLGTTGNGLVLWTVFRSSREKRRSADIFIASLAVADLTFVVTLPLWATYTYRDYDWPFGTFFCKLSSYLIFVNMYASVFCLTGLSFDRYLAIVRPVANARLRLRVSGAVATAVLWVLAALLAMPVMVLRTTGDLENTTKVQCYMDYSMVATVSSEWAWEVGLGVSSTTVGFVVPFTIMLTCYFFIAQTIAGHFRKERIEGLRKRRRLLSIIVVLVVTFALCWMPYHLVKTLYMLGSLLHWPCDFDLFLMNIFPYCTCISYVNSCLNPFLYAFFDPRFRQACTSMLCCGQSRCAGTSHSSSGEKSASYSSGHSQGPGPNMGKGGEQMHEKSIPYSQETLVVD
Put plainly: Competition binding in homogenate of human left ventricle (HLV). How it is done:
Equilibrium was broken by centrifugation (20,000 g for 10 min, 4° C.). Pellets were washed with Tris-HCl buffer (50 mmol/L, pH 7.4, 4° C.), re-centrifuged and bound radioactivity in the final pellets counted. Data from triplicate experiments were analysed using the iterative non-linear curve fitting programs EBDA and LIGAND (KELL package, Biosoft, UK) or GraphPad Prism 6 to derive values of affinity (expressed as either the equilibrium dissociation constant KD or the negative log10 of the dissociation constant, pKi±sem) and receptor density (BMAX±sem in fmoles bound per mg protein).

The test system of experiment [2] is glioblastoma. To be noted: ref. [60], cited from earlier work; for anti-tumor / anti-cancer effects in glioblastoma: models of glioblastoma.
Experiment [3] has as its target T1, human apelin receptor. In words: Cerep radioligand binding assay on CHO-K1 cells expressing the human apelin receptor. On the set-up: host or cells: CHO-K1. How it is done:
Binding assays were performed by Cerep (Celle L'Evescault, France) on Chinese Hamster Ovary (CHO-K1) cells expressing the human apelin receptor. […] The results were expressed as a percent of control specific binding ((measured specific binding/control specific binding)×100) and as a percent inhibition of control specific binding (100−((measured specific binding/control specific binding)×100)) obtained in the presence of the test compounds. […] The inhibition constants (Ki) were calculated using the Cheng Prusoff equation (Ki=IC50/(1+(L/KD)), where L=concentration of radioligand in the assay, and KD=equilibrium dissociation constant of the radioligand for the receptor).

Experiment [4] deals with T1, human apelin receptor. In words: DRx β-arrestin assay (PathHunter eXpress AGTRL1 CHO-K1). It is filed as cell-based. To be noted: for Kb: DRx β-Arrestin pA2. On the set-up: host or cells: CHO-K1. Here is the method:
(§1) cAMP (cAMP Hunter™ eXpress AGTRL1 CHO-K1 GPCR Assay, DiscoverX Corporation, Ltd. Birmingham, UK) and β-arrestin (PathHunter® eXpress AGTRL1 CHO-K1 β-Arrestin GPCR Assay, DiscoverX Corporation, Ltd. Birmingham, UK) assays were performed according to the manufacturer's instructions. The cAMP assay measures the canonical signalling pathway through the G-protein. The β-arrestin assay measures the alternative signalling pathway and receptor internalisation.
For recruitment of β-arrestin, CHO-K1 cells artificially expressing the human apelin receptor were seeded in Cell Plating medium into 96-well plates and incubated for 48 hours at 37° C. in 5% CO2. Concentration response curves were constructed to test peptides (1 pmol/L-30 μmol/L) which were diluted in Cell Plating medium and added to the cells for 90 minutes at 37° C. If no response was obtained then test peptides were investigated as antagonists. […] Detection reagents were then added for a 2-hour incubation at room temperature. […] If no agonist response was obtained, test compounds were investigated for antagonist activity by repeating [Pyr]apelin-13 concentration response curves in the absence and presence of a single concentration (1-30 μmol/L of test peptide). Data were analysed as described for the cAMP assay using the Gaddum/Schild EC50 function in GraphPad Prism 6 to determine values of pA2.

The target in experiment [5] is T1, human apelin receptor. Put plainly: DRx cAMP assay (cAMP Hunter eXpress AGTRL1 CHO-K1), forskolin-induced cAMP accumulation. On the set-up: host or cells: CHO-K1. To be noted: for Kb: DRx cAMP pA2, antagonism of [Pyr1]apelin-13 inhibition of forskolin-stimulated cAMP. It is filed as cell-based. Here is the method: Antagonist activity at the apelin receptor was measured in two assays.
as §1
Cells were then incubated with a mixture of Lysis Buffer, cAMP Buffer D and Detection Reagents for 1 hour at room temperature, followed by a 3 hour incubation with cAMP Reagent A at room temperature. Chemiluminescence was read using the LumiLITE™ Microplate Reader (DiscoverX). Concentration-response data for agonists, measured in relative light units (RLU), were analysed using a 4 parameter logistic equation in GraphPad Prism 6 (La Jolla, CA, USA) to determine values of potency expressed as the pD2 value (negative logo of the EC50 (where EC50 is the concentration producing half maximal response)), and maximum response (EMAX). Mean data from replicate experiments were normalised as percentage inhibition of forskolin-stimulated cAMP production.

The target of experiment [6] is T1, human apelin receptor. To be noted: human cardiac tissue, ref. [15]; cited from earlier work.
The test system of experiment [7] is endothelium-denuded saphenous vein. To be noted: human tissue, ref. [15]; cited from earlier work.
The subject of experiment [8] is human forearm. In words: Human forearm studies. It is filed as in vivo.
Setting [9] is: [Glp65,Nle75,Tyr77][125I]apelin-13, read-out: Ki (binding affinity at the apelin receptor, Cerep).

For `CCCC[C@H](NC(=O)[C@H](CCCNC(=N)N)NC(=O)C(C)(C)NC(=O)[C@H](CCCNC(=N)N)NC(=O)[C@H](CS)NC(=O)[C@H](Cc1c[nH]cn1)NC(=O)[C@H](CCCCN)NC(=O)[C@H](CS)NC(=O)[C@H](CCCC)NC(=O)[C@H](CCCNC(=N)N)NC(=O)[C@@H]1CCCN1C(=O)[C@H](CCCNC(=N)N)NC(=O)[C@@H](N)CS)C(=O)N[C@@H](Cc1cc(F)c(F)c(F)c1)C(=O)O` [MM193, CRPR-Nle-CKHCR-Aib-R-Nle-(3,4,5-trifluorophenylalanine)] (H-CRPR[Nle]CKHCR[Aib]R[Nle][Phe(3,4,5-F3)]-OH), the Ki in experiment [1] (read-out: HLV pKi (converted)) was 759 nM; in experiment [3] (setting [9]), 19 nM. Further, the “anti-tumor / anti-cancer effects in glioblastoma” value in experiment [2] is given as “significant anti-cancer effects”. The “DRx β-Arrestin pA2” value in experiment [4] is 7.68; in experiment [4] (cho-k1 cells, 90 min), “pA2 = 7.68”. Also, the “antagonism of [pyr1]apelin-13 mediated β-arrestin recruitment” value in experiment [4] (1 μM, FIG. 1a) is recorded as “antagonised by addition of MM193 in a competitive manner”. Also, the Kb in experiment [4] is 20.9 nM; in experiment [5], 42.7 nM and 77.6 nM. In addition, in experiment [5] (1 μM, FIG. 1b), the “antagonism of [pyr1]apelin-13 inhibition of forskolin stimulated cAMP accumulation” value is given as “antagonised by addition of MM193 in a competitive manner”. Moreover, in experiment [5] (antagonism of [Pyr1]apelin-13 inhibition of forskolin-stimulated cAMP), the “DRx cAMP pA2” value turned out to be 7.37.

For “Apelin-13(F13A): apelin-13 analogue reported as a functional antagonist, may act as an apelin receptor agonist in vitro”, the “competition for binding with [125I]-(Pyr1)apelin-13 in the left ventricle” value in experiment [6] is “competes for binding”. For the same molecule, the “constriction of endothelium-denuded saphenous vein” value in experiment [7] is listed as “effectively constricts”.

Regarding `CCCC[C@H](NC(=O)[C@H](CCCNC(=N)N)NC(=O)C(C)(C)NC(=O)[C@H](CCCNC(=N)N)NC(=O)[C@H](CS)NC(=O)[C@H](Cc1c[nH]cn1)NC(=O)[C@H](CCCCN)NC(=O)[C@H](CS)NC(=O)[C@H](CCCC)NC(=O)[C@H](CCCNC(=N)N)NC(=O)[C@@H]1CCCN1C(=O)[C@H](CCCNC(=N)N)NC(=O)[C@@H]1CCC(=O)N1)C(=O)N[C@@H](Cc1cc(F)c(F)c(F)c1)C(=O)O` [MM297, pyr-RPR-Nle-CKHCR-Aib-R-Nle-(3,4,5-trifluorophenylalanine)] ([pGlu]RPR[Nle]CKHCR[Aib]R[Nle][Phe(3,4,5-F3)]-OH), in experiment [3] (setting [9]), the Ki was found to be 55 nM. In addition, the Kb is 41.7 nM in experiment [4]; 832 nM and 724 nM in experiment [5]. Besides, the “DRx β-Arrestin pA2” value in experiment [4] (cho-k1 cells, 90 min) is on record as “pA2 = 7.38”.

In the case of `CC(C)C[C@@H]1NC(=O)[C@H](CCCNC(=N)N)NC(=O)[C@@H]2CCCN2C(=O)[C@H](CCCNC(=N)N)NC(=O)[C@@H](NC(=O)[C@H](Cc2c[nH]cn2)NC(=O)[C@H](CCCCN)NC(=O)[C@@H]2CSSC[C@H](N)C(=O)N[C@@H](CCCNC(=N)N)C(=O)N3CCC[C@H]3C(=O)N[C@@H](CCCNC(=N)N)C(=O)N[C@@H](CC(C)C)C(=O)N2)CSSC[C@@H](C(=O)O)NC1=O` [MM54, cyclo(1-6)CRPRLC-KH-cyclo(9-14)CRPRLC] (H-CRPRLCKHCRPRLC-OH; disulfide 1-6, 9-14; N-terminus and C-terminus assumed), the Ki in experiment [1] (HLV pKi) was 275 nM and 355 nM. Further, the “functional activity in human forearm studies” value in experiment [8] is “functional agonist activity indicated by vasodilation”. The “combination with the anti-cancer compound tomozolomide” value in experiment [2] (model of glioblastoma) was “synergistic properties”. The “anti-tumor / anti-cancer effects in glioblastoma” value in experiment [2] is on record as “anti-tumor properties”. The molecule further had a Ki in experiment [3] (Ki (binding affinity at the apelin receptor, Cerep), [Glp65,Nle75,Tyr77][125I]apelin-13) of 82 nM. In addition, in experiment [4], the “DRx β-Arrestin pA2” value is given as 6.63; the Kb was 117 nM and 234 nM.

Consider `CCCC[C@H](NC(=O)[C@H](CCCNC(=N)N)NC(=O)C(C)(C)NC(=O)[C@H](CCCNC(=N)N)NC(=O)[C@H](CS)NC(=O)[C@H](Cc1c[nH]cn1)NC(=O)[C@H](CCCCN)NC(=O)[C@H](CC)NC(=O)[C@H](CCCC)NC(=O)[C@H](CCCNC(=N)N)NC(=O)[C@@H]1CCCN1C(=O)[C@H](CCCNC(=N)N)NC(=O)[C@@H](N)CS)C(=O)N[C@@H](Cc1cc(F)c(F)c(F)c1)C(=O)O` [MM298, CRPR-Nle-Abu-KHCR-Aib-R-Nle-(3,4,5-trifluorophenylalanine)] (H-CRPR[Nle][Abu]KHCR[Aib]R[Nle][Phe(3,4,5-F3)]-OH), for which the Ki in experiment [3] (setting [9]) amounted to 16 nM. In addition, the Kb in experiment [4] is 17.4 nM; in experiment [5], 25.7 nM and 75.9 nM. The “DRx β-Arrestin pA2” value in experiment [4] (cho-k1 cells, 90 min) is “pA2 = 7.76”.

`CCCC[C@H](NC(=O)[C@H](CCCNC(=N)N)NC(=O)C(C)(C)NC(=O)[C@H](CCCNC(=N)N)NC(=O)[C@H](CS)NC(=O)[C@H](Cc1c[nH]cn1)NC(=O)[C@H](CCCCN)NC(=O)[C@H](CS)NC(=O)[C@H](CCCC)NC(=O)[C@H](CCCNC(=N)N)NC(=O)[C@@H]1CCCN1C(=O)[C@H](CCCNC(=N)N)NC(=O)[C@@H](N)CCC(N)=O)C(=O)N[C@@H](Cc1cc(F)c(F)c(F)c1)C(=O)O` [MM262, QRPR-Nle-CKHCR-Aib-R-Nle-(3,4,5-trifluorophenylalanine)] (H-QRPR[Nle]CKHCR[Aib]R[Nle][Phe(3,4,5-F3)]-OH): the Ki in experiment [3] (setting [9]) was determined as 34 nM. Also, the Kb in experiment [4] is 29.5 nM; in experiment [5] it was 447 nM and 135 nM. Also, in experiment [4] (cho-k1 cells, 90 min), the “DRx β-Arrestin pA2” value was “pA2 = 7.53”.

Source of the values: patent publication US11976137B2, “Compounds for use as apelin receptor antagonists” (Cambridge Enterprise Limited, priority 2018, dated 2024).
